Measured values: article PMC9818267, “Brain Natriuretic Peptide Protects Cardiomyocytes from Apoptosis and Stimulates Their Cell Cycle Re-Entry in Mouse Infarcted Hearts” (Cells, 2022)
No end group written: not given here.

Experiments:
[1] = test system: cardiomyocytes (CMs); conditions: adult CMs from unmanipulated BNP-treated hearts vs saline, p = 0.008; cited from earlier work
Description: The percentages of mononucleated CMs increased in all the BNP-treated hearts (Figure 2B,E,G).

[2] = test system: cardiomyocytes (CMs); experiment: qRT-PCR on CMs isolated from treated hearts; type: in vivo, mouse
Method: BNP was injected into infarcted adults, and unmanipulated neonatal and adult mice. Directly after surgery, NaCl (saline) or BNP (1.3 µg/20 g in 20 µL) was injected into the left ventricle cavity. At 24 h after MI, mice were intraperitoneal (ip) injected with BNP (2 µg/20 g mice) or saline every 2 days. C57BL/6 mice were sacrificed 1- and 14 days post-MI and Myh6 MerCreMer mice were sacrificed 14 days post-MI (Figure 1A). Neonatal C57BL/6 mice (3 days after birth) were injected ip with NaCl or BNP every two days (1 µg/2 g; Bachem; synthetic mouse BNP (1–45) peptide (catalog number H-7558)). Mice were sacrificed 11 days after birth (Figure 1B). Eight week old C57 BL/6 mice or Myh6 MerCreMer unmanipulated mice were injected ip with BNP (2 µg/20 g mice) or NaCl every two days (Figure 1C). Two weeks after the first injection, mice were sacrificed. To assess for the implication of the ERK signaling pathway in the BNP effect on CMs, PD0325901 (60 µg/20 g mice in 80 µL) was administered by gavage in adult unmanipulated mice 1 h before BNP injection (2 µg/20 g mice).
(§1) CM isolations were performed thanks to the Langendorff-Free method. […] Thereafter, the heart was removed from the chest and the left ventricle was perfused with enzymatic solution containing collagenase II (120 U/mL), collagenase IV (120 U/mL) (Worthington, Biochemical Corporation, USA) and protease XIV (0.05 mg/mL or 0.175 U/mL) (Sigma-Aldrich, Merck, Darmstadt, Germany). In each experiment, a full digestion of the heart was obtained. After digestion, cardiac cells were dissociated by gentle pipetting, filtered and collected after 25 min sedimentation. For infarcted hearts, the tissue was separated into the three zones (ZI, BZ and RZ). The three different areas were weighted before gentle pipetting.
(§2) qRT-PCR were performed using the SYBR Premix Ex Taq polymerase (Takara Bio Inc., Shiga, Japan) with the ViiA^TM7 Instrument (Applied Biosystems, Waltham, MA, USA). Total RNA was isolated from heart tissue, CM cell cultures and isolated CMs using TRI-Reagent (Zymo Research, Orange County, CA, USA). cDNA was synthesized from RNA using PrimeScript RT reagent kit (Takara Bio Inc.). Polymerase chain reactions (PCR) were performed using the SYBR Premix Ex Taq polymerase (Takara Bio Inc.) with the ViiA^TM7 Instrument (Applied Biosystems). Results were obtained after 40 cycles of a thermal step protocol consisting of an initial denaturation of 95 °C (1 s), followed by 60 °C (20 s) of elongation (α-skeletal actin has an elongation time of 30 s at 60 °C). The sequences of primers were reported in Supplementary File S2. All results were normalized with the 18S housekeeping gene (Δ CT values). Means of ΔΔ CT (Δ CTBNP–Δ CTsaline) values (versus untreated cells or NaCl treated mice) were calculated and results were represented as 2^−ΔΔCT. Statistics were performed on ΔΔ CT individual values. SEM fold increase was calculated using 2^−ΔΔ CT high values − 2^−means of ΔΔCT [13].

[3] = test system: p38; experiment: Western blot pp38/p38 in adult CMs stimulated in vitro; type: cell-based, mouse; conditions: adult CMs stimulated with BNP for 2–3 h in vitro, vs untreated
Method: as §1
(§3) Total proteins were extracted from CMs isolated from adult infarcted and unmanipulated neonatal and adult hearts. Proteins were transferred to nitrocellulose membranes (Biorad) before incubation with primary antibodies overnight at 4 °C. Secondary antibodies were added 1 h at RT in the dark (Supplementary File S1). The signal was detected and quantified with the Odyssey infrared imaging system (LI-COR. Biosciences, Bad Homburg, Germany). All results were normalized to the tubulin protein level or to the total protein level thanks to stainings with the Revert 700 Total protein Stain (LI-COR).

[4] = test system: Akt; experiment: Western blot pAkt/Akt in adult CMs stimulated in vitro; type: cell-based, mouse; conditions: adult CMs stimulated with BNP for 2–3 h in vitro, vs untreated
Method: as §1, §3

[5] = test system: adult CMs; experiment: Adult CM culture 7 days with BNP; type: cell-based, mouse; conditions: 10 nM BNP, 7 days of culture
Method: as §1, §2

[6] = test system: cardiomyocytes (CMs); experiment: qRT-PCR on CMs isolated from treated hearts; type: in vivo, mouse; conditions: CMs from border area of infarcted hearts 10 days after surgery, BNP vs saline
[7] = rats with myocardial damage; cited from earlier work
[8] = test system: cardiomyocytes (CMs); experiment: CM nucleation status and cross-sectional area; type: in vivo, mouse; conditions: vs saline
Method: After 25 min sedimentation, CMs were used for molecular analysis, Western blot analysis, flow cytometry analysis or fixed with 2.5% PFA 15 min at room temperature (RT) and stained with DAPI to evaluate the frequency of mono and bi-nucleated CMs.
CM area was assessed by α actinin and laminin stainings and image J software (1.53t version from the 24.08.2022, Mac OX X, Bethesda, MD, USA) for processing using CIF outliner cell Plugin. Only CMs with circularity >0.5 were considered.

[9] = test system: Troponin T; experiment: Troponin T plasma concentration (ECLIA) after MI; type: in vivo, mouse; conditions: BNP vs saline
Method: Troponin T plasma levels were quantified using an electrochemiluminescence immunoassay analyzer “ECLIA” (cobas e 801 immunoanalysis system, Roche Diagnostics, Rotkreuz, Switzerland) in the hematology laboratory of the Centre Hospitalier Universitaire Vaudois (CHUV). Blood was collected 24 h and 3 days after infarction induction in heparin microvette (Sarstedt, Nümbrecht, Germany).

[10] = CMs from border area of infarcted hearts, BNP vs saline
[11] = CMs from unmanipulated adult hearts, BNP vs saline

In the case of “Brain Natriuretic Peptide (SQGSTLRVQQRPQNSKVTHISSCFGHKIDRIGSVSRLGCNALKLL; not fully specified; ends and bridges not checked; UniProt P40753 77-121, looked up) [BNP, synthetic mouse BNP (1–45) peptide (Bachem, catalog number H-7558)]”, the “CM cross-sectional area change” value [1] is given as −6%, the “hearts with increased cyclin A2 and B2 mRNA in isolated CMs” value ([2]; CMs from BZ of BNP-treated infarcted hearts, vs saline) is given as 4 out of 8 and the “mRNA expression of myh7, acta1, hif1α” value ([2]; CMs from RZ of BNP-treated infarcted hearts (data not shown)) is given as “No difference”. The “acta1 mRNA level increase” value [2, 10] was 2 ×, the “hif1α mRNA level increase” value [2, 10] was 1.4 × and the “hif1α mRNA level increase” value ([2]; CMs from neonatal BNP-treated hearts, vs saline) was 1.5 ×. The “acta1 mRNA level increase” value [2, 11] was 1.4 ×, the “hif1α mRNA level increase” value [2, 11] was 1.8 × and the “myh7 mRNA level increase” value [2, 11] was 1.9 ×. The “mRNAs coding for cyclins E1, A2 or B2” value ([2]; CMs isolated from all neonatal BNP-treated hearts, vs saline) was “increased levels”, the “CM isolations with increased cyclin A2 or B2 mRNA” value ([2]; unmanipulated adult BNP-treated hearts, vs saline) was 5 out of 7 and the pp38/p38 ratio [3] was “did not change”. For the same substance, the pAkt/Akt ratio increase [4] was 2.5 ×, the “Aurkb+ Troponin I+ CMs in culture” value [5] was “detected only in BNP-treated cell cultures” and the “anf mRNA increase” value ([5]; vs untreated) was 70%. For the same substance, the “cyclin E1 mRNA increase” value ([5]; vs untreated) was 56%, the “dab2 mRNA increase” value ([5]; vs untreated) was 52% and the “runx1 mRNA increase” value ([5]; vs untreated) was 62%. For the same substance, the “myh7 mRNA level increase” value [6] was 2.7 ×, the half-life [7] was “about 1.2 min” and the “percentages of mononucleated CMs” value ([8]; all BNP-treated hearts (infarcted, neonatal, adult)) was “increased”. For the same substance, the “frequency of small CMs (cross-sectional area)” value ([8]; all areas of BNP-treated infarcted hearts) was “significantly higher”, the “Troponin T plasma concentration decrease” value ([9]; 1 day after MI) was 2.6 × and the “Troponin T plasma concentration decrease” value ([9]; 3 days after MI) was 2.1 ×.
